Measurements reported in ChEMBL document CHEMBL4834444, “Discovery of novel N-1 substituted pyrazolopyrimidinones as potent, selective PDE2 inhibitors” (Bioorg Med Chem Lett, 2021).
In brackets after ≈: the same amount, converted by molar mass.

Experiments:
[1] = Inhibition of human PDE1
Cytochrome P450 3A4 = Cytochrome P450 3A4 (Homo sapiens, UniProt P08684); test: Inhibition of CYP3A4 (unknown origin); assay type: ADME
Homo sapiens = species on record: Homo sapiens; test: Inhibition of Ion channel (unknown origin)
[2] = Plasma protein binding in rat assessed as unbound fraction; assay type: ADME, cell-free
Phosphodiesterase 7 = Phosphodiesterase 7 (Homo sapiens, UniProt Q13946+Q9NP56); test: Inhibition of human PDE7; assay type: protein assay
[3] = Kinetic solubility of compound in FaSSIF; assay type: physicochemical; settings: read-out: Kinetic_solubility
Phosphodiesterase 4 = Phosphodiesterase 4 (Homo sapiens, UniProt P27815+Q08499+Q07343+Q08493); test: Inhibition of human PDE4; assay type: protein assay
Cytochrome P450 2D6 = Cytochrome P450 2D6 (Homo sapiens, UniProt P10635); test: Inhibition of CYP2D6 (unknown origin); assay type: ADME
[4] = target: T1, PXR (nuclear receptor subfamily 1 group I member 2) (Homo sapiens, UniProt O75469); test: Inhibition of human PXR at 10 uM
T1 sequence (O75469 whole entry): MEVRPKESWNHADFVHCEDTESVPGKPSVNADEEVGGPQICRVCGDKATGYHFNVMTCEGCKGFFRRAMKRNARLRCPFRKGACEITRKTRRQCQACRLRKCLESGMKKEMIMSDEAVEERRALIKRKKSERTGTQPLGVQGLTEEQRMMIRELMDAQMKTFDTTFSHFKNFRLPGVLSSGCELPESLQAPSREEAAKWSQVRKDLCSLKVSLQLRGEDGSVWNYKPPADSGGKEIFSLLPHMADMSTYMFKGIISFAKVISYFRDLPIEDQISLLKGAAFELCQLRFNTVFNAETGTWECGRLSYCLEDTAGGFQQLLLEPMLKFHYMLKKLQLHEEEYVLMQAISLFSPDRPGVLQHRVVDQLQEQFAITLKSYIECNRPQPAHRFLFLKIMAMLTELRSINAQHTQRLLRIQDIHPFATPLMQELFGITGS

[5] = target: High affinity cGMP-specific 3',5'-cyclic phosphodiesterase 9A (Homo sapiens, UniProt O76083); test: Inhibition of human PDE9
[6] = Kinetic solubility of compound at pH 2; assay type: physicochemical; settings: buffer, read-out: Kinetic_solubility
[7] = Plasma protein binding in human assessed as unbound fraction; assay type: ADME, cell-free
[8] = target: cGMP-specific 3',5'-cyclic phosphodiesterase (Homo sapiens, UniProt O76074); test: Inhibition of human PDE5
Phosphodiesterase 6 = test: Inhibition of human PDE6; assay type: protein assay
[9] = target: Dual 3',5'-cyclic-AMP and -GMP phosphodiesterase 11A (Homo sapiens, UniProt Q9HCR9); test: Inhibition of human PDE11
[10] = Plasma protein binding in rhesus monkey assessed as unbound fraction; assay type: ADME, cell-free, Macaca mulatta
[11] = Kinetic solubility of compound at pH 7; assay type: physicochemical; settings: buffer, read-out: Kinetic_solubility
[12] = Plasma clearance in rat; assay type: ADME
[13] = Half life in rat; assay type: ADME; settings: in vivo
[14] = target: cAMP and cAMP-inhibited cGMP 3',5'-cyclic phosphodiesterase 10A (Homo sapiens, UniProt Q9Y233); test: Inhibition of human PDE10
[15] = Inhibition of human PDE3
[16] = Mean residence time in rat; assay type: ADME; settings: in vivo
[17] = Inhibition of human PDE8
Cytochrome P450 2C9 = Cytochrome P450 2C9 (Homo sapiens, UniProt P11712); test: Inhibition of CYP2C9 (unknown origin); assay type: ADME
Chain of Cytochrome P450 2C9 (P11712 whole entry): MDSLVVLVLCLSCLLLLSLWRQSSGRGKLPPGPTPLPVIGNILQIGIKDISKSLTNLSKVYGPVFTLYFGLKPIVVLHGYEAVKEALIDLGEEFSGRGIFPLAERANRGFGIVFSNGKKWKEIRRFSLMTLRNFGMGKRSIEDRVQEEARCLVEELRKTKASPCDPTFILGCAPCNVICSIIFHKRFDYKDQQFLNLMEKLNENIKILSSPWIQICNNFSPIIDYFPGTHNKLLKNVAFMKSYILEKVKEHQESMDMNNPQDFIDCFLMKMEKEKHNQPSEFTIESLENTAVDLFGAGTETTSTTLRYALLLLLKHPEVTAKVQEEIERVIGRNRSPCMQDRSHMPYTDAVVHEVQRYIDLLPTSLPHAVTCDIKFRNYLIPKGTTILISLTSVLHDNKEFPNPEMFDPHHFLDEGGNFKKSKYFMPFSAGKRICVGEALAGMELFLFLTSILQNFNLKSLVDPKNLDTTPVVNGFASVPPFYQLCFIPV

Chain of cAMP and cAMP-inhibited cGMP 3',5'-cyclic phosphodiesterase 10A (Q9Y233 whole entry): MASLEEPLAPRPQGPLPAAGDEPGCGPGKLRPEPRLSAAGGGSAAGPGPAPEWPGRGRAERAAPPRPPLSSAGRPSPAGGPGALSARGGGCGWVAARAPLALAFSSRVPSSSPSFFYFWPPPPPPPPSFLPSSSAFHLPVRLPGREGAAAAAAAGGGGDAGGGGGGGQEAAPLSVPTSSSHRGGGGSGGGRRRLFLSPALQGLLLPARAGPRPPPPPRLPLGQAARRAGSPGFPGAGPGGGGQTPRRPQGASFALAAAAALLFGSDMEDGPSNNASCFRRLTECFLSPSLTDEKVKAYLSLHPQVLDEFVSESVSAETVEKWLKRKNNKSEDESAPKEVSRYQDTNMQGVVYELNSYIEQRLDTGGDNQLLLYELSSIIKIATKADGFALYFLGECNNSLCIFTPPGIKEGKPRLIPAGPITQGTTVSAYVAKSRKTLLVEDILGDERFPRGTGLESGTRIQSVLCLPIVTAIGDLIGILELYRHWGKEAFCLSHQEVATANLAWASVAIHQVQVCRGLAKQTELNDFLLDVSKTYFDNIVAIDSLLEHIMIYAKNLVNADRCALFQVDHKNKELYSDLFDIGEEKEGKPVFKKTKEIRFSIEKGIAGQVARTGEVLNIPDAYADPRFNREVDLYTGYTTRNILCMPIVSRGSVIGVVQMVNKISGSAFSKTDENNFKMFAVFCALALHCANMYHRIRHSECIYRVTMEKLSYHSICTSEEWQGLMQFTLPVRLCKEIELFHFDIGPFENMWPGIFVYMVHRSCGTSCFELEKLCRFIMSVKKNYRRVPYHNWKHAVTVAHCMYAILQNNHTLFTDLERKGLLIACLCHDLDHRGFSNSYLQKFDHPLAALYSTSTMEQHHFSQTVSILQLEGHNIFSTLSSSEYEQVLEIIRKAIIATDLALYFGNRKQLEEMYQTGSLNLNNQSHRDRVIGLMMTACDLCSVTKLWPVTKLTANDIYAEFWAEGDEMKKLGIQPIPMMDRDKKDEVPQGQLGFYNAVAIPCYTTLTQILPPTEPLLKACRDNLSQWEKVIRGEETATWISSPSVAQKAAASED
Chain of Dual 3',5'-cyclic-AMP and -GMP phosphodiesterase 11A (Q9HCR9 whole entry): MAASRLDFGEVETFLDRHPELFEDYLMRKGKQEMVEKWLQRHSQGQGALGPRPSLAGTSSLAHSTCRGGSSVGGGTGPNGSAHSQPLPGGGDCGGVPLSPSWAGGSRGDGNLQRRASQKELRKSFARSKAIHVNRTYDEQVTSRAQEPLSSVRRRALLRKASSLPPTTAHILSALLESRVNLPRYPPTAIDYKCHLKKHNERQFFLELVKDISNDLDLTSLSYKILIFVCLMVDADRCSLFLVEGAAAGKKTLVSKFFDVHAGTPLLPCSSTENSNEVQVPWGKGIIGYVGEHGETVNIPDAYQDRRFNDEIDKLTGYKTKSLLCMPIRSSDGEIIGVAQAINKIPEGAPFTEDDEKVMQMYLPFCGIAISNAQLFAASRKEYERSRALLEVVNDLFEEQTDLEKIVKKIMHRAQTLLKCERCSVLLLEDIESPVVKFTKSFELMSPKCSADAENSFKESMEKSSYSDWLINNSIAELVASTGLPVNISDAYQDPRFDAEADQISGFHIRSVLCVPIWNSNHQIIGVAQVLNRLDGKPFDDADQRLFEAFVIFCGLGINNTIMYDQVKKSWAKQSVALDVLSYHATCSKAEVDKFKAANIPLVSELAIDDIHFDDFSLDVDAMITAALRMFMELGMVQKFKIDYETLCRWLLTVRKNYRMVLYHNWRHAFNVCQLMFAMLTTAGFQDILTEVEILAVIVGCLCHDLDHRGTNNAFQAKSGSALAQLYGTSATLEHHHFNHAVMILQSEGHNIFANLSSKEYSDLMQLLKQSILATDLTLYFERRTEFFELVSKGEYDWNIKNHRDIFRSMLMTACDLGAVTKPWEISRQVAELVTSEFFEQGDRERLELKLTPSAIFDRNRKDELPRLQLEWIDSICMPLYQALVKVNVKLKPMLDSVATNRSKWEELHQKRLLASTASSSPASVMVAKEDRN
Chain of High affinity cGMP-specific 3',5'-cyclic phosphodiesterase 9A (O76083 whole entry): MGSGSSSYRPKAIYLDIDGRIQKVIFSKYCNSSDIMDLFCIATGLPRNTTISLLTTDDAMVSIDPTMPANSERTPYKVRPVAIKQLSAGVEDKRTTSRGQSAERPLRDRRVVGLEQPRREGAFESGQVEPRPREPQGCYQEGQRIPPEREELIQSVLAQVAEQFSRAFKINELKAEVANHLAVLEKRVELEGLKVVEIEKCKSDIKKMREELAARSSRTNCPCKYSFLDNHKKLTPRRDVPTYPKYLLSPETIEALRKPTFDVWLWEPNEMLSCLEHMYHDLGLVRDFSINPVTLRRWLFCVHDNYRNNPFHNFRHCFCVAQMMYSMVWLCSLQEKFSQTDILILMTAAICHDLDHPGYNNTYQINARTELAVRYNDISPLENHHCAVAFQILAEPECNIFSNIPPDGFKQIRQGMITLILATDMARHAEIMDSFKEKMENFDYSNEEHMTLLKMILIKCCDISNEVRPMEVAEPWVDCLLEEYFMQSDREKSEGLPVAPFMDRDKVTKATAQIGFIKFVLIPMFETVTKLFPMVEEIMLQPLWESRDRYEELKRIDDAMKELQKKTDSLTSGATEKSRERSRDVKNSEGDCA
Chain of Cytochrome P450 3A4 (P08684 whole entry): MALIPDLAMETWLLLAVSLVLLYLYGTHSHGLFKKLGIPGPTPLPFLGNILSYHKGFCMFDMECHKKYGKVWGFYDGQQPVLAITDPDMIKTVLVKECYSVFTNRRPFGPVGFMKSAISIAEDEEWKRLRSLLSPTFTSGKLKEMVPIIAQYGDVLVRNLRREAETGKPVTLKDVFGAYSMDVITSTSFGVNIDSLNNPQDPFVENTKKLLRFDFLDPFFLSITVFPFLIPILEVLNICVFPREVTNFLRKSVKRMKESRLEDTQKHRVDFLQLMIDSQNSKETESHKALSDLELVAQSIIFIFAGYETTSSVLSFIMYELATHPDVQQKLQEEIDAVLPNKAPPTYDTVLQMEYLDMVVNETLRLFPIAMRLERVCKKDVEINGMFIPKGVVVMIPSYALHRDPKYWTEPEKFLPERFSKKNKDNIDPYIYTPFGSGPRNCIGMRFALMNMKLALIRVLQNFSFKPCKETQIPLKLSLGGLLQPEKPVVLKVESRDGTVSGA
Chain of Cytochrome P450 2D6 (P10635 whole entry): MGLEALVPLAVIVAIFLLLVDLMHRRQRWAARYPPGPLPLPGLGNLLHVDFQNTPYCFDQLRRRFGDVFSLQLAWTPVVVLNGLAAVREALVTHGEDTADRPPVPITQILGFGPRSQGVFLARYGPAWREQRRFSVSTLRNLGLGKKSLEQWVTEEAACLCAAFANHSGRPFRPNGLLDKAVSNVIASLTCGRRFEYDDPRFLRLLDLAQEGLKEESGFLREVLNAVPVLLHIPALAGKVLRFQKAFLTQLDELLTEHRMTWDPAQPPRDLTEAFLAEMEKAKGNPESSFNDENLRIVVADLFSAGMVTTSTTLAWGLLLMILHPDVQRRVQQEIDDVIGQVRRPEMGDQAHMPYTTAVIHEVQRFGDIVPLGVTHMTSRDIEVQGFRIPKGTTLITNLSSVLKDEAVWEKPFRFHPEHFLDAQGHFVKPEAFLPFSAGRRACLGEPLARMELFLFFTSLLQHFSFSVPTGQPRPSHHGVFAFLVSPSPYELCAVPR

IC50 [1] [µM] | INH (Cytochrome P450 3A4) [µM] | INH (Homo sapiens) [µM] | fraction unbound [2] | IC50 (Phosphodiesterase 7) [µM] | solubility kinetic [3] [µM] | IC50 (Phosphodiesterase 4) [µM] | INH (Cytochrome P450 2D6) [µM] | inhibition at 10 µM [4] [%] | IC50 [5] [µM] | solubility kinetic [6] [µM] | fraction unbound [7] | IC50 [8] [µM] | IC50 (Phosphodiesterase 6) [µM] | IC50 [9] [µM] | fraction unbound [10] | solubility kinetic [11] [µM] | clearance [12] [mL/min/kg] | half-life [13] [h] | IC50 [14] [µM] | Compound | further results
> 60 | > 50 | 17 | 0.014 | > 75 | 177 (≈ 63.1 µg/mL) | 3.3 | > 50 | 45 | > 50 | 60 (≈ 21.4 µg/mL) | 0.009 | 21 | 11 | 0.6 | 0.016 | 20 (≈ 7.13 µg/mL) | 49 | 1.4 | 5.8 | Cc1nc2c([C@H](C)c3ccc(C(C)(C)C)cc3)nn(CCF)c2c(=O)[nH]1 | IC50 [15]: 5.7 µM; MRT [16]: 0.8 h; IC50 [17]: > 50 µM; INH (Cytochrome P450 2C9): > 50 µM
> 60 | 44 | 9.6 | 0.049 | > 75 | 148 (≈ 56.9 µg/mL) | 3.5 | > 50 | 16 | > 50 | 117 (≈ 45 µg/mL) | 0.03 | 23 | 27 | 6.2 | 0.035 | 115 (≈ 44.2 µg/mL) | 24 | 3.1 | 18 | Cc1nc2c([C@H](C)c3ccc(C(F)(F)F)c(F)c3)nn(CCO)c2c(=O)[nH]1 | IC50 [15]: 1.8 µM; MRT [16]: 2.5 h; IC50 [17]: > 50 µM; INH (Cytochrome P450 2C9): > 50 µM
